Among the data in patent US12600717B2, “Tricyclic compounds as inhibitors of KRAS” (Incyte Corporation, priority 2021, dated 2026) are IC50 values, retold here.

In one assay the target is KRAS G12V (Homo sapiens, UniProt P01116, G12V). The assay can be described thus: GDP-GTP exchange assay (bodipy-GDP/GppNHp, SOS1), KRAS G12V. The format is biochemical. To be noted: bodipy-loaded KRAS G12V 2.5 nM, 3 hours incubation after adding GppNHp-SOS1; read-out: G12V_exchange IC50. As for the experimental part:
(§1) The inhibitor potency of the exemplified compounds was determined in a fluorescence based guanine nucleotide exchange assay, which measures the exchange of bodipy-GDP (fluorescently labeled GDP) for GppNHp (Non-hydrolyzable GTP analog) to generate the active state of KRAS in the presence of SOS1 (guanine nucleotide exchange factor). Inhibitors were serially diluted in DMSO and a volume of 0.1 μL was transferred to the wells of a black low volume 384-well plate. 5 μL/well volume of bodipy-loaded KRAS G12D diluted to 2.5 nM in assay buffer (25 mM Hepes pH 7.5, 50 mM NaCl, 10 mM MgCl2 and 0.01% Brij-35) was added to the plate and pre-incubated with inhibitor for 4 hours at ambient temperature. Appropriate controls (enzyme with no inhibitor or with a G12D inhibitor) were included on the plate. The exchange was initiated by the addition of a 5 μL/well volume containing 1 mM GppNHp and 300 nM SOS1 in assay buffer. The 10 μL/well reaction concentration of the bodipy-loaded KRAS G12D, GppNHp, and SOS1 were 2.5 nM, 500 uM, and 150 nM, respectively. The reaction plates were incubated at ambient temperature for 2 hours, a time estimated for complete GDP-GTP exchange in the absence of inhibitor. For the KRAS G12V mutant, similar guanine nucleotide exchange assays were used with 2.5 nM as final concentration for the bodipy loaded KRAS proteins and 3 hours incubation after adding GppNHp-SOS1 mixture. A cyclic peptide described to selectively bind G12D mutant (Sakamoto et al., BBRC 484.3 (2017), 605-611) or internal compounds with confirmed binding were used as positive controls in the assay plates. Fluorescence intensities were measured on a PheraStar plate reader instrument (BMG Labtech) with excitation at 485 nm and emission at 520 nm.
(§2) Either GraphPad prism or Genedata Screener SmartFit was used to analyze the data. The IC50 values were derived by fitting the data to a four parameter logistic equation producing a sigmoidal dose-response curve with a variable Hill coefficient.
(§3) The symbol “†” indicates IC50≤100 nM, “††” indicates IC50>100 nM but ≤1 μM; and “†††” indicates IC50 is >1 μM but ≤5 μM, “††††” indicates IC50 is >5 μM but ≤10 μM. “NA” indicates IC50 not available.

Another assay deals with KRAS G12D (Homo sapiens, UniProt P01116, G12D). The assay can be described thus: GDP-GTP exchange assay (bodipy-GDP/GppNHp, SOS1), KRAS G12D. To be noted: bodipy-loaded KRAS G12D 2.5 nM, 4 hours pre-incubation with inhibitor, 2 hours after GppNHp/SOS1; read-out: G12D_exchange IC50. The format is biochemical. As for the experimental part: as §1, §2, §3
KRAS G12D, sequence (P01116 1-188 isoform P01116-2 G12D): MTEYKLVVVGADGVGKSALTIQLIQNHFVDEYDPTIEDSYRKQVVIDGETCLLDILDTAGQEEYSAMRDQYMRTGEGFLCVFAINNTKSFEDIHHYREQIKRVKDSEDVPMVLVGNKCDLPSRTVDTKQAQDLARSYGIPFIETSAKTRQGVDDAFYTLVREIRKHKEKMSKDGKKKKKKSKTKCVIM

A value given as a limit tells only on which side of the number the result lay.

KRAS G12V, sequence (P01116 1-188 isoform P01116-2 G12V): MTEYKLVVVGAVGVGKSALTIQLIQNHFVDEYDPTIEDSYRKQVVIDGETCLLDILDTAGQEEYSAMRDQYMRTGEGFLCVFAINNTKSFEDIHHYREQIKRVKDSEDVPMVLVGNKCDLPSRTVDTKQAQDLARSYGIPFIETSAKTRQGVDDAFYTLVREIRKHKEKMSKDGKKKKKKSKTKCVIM

What is called IC50 is the midpoint of a concentration-inhibition curve. As to `CN(C)C1CN(c2nc3c(F)c(-c4cc(O)cc5ccccc45)c(CCC#N)cc3c3c2nc(-c2ccn(Cc4ccccc4)n2)n3C2C3CNC2C3)C1` (single isomer, unassigned) [Example 36a, 3-(2-(1-benzyl-1H-pyrazol-3-yl)-1-((endo)-2-azabicyclo[2.1.1]hexan-5-yl)-4-(3-(dimethylamino)azetidin-1-yl)-6-fluoro-7-(3-hydroxynaphthalen-1-yl)-1H-imidazo[4,5-c]quinolin-8-yl)propanenitrile], the 50% inhibitory concentration (IC50) on KRAS G12V was ≤ 100 nM; at KRAS G12D, 100 to 1000 nM.
As for `CN(C)C(=O)CCc1nc2c(N3CC(N(C)C)C3)nc3c(F)c(-c4cccc5c4CC(F)(F)CC5)c(CCC#N)cc3c2n1[C@@H]1[C@@H]2CN[C@H]1C2` (relative stereo) [Example 33, 3-(1-endo-(2-azabicyclo[2.1.1]hexan-5-yl)-8-(2-cyanoethyl)-7-(7,7-difluoro-5,6,7,8-tetrahydronaphthalen-1-yl)-4-(3-(dimethylamino)azetidin-1-yl)-6-fluoro-1H-imidazo[4,5-c]quinolin-2-yl)-N,N-dimethylpropanamide], the IC50 is 1000 to 5000 nM at KRAS G12V and ≤ 100 nM at KRAS G12D.
As for `CN(C)C(=O)CCc1nc2c(N3CC(N(C)C)C3)nc3c(F)c(-c4cc(O)cc5ccccc45)cc(CO)c3c2n1[C@@H]1[C@@H]2CN[C@H]1C2` (relative stereo) [Example 15, 3-(1-((endo)2-azabicyclo[2.1.1]hexan-5-yl)-4-(3-(dimethylamino)azetidin-1-yl)-6-fluoro-9-(hydroxymethyl)-7-(3-hydroxynaphthalen-1-yl)-1H-imidazo[4,5-c]quinolin-2-yl)-N,N-dimethylpropanamide], the IC50 on KRAS G12V is 1000 to 5000 nM; on KRAS G12D it was ≤ 100 nM.
The corresponding values for `C[C@H](Oc1nc2c(F)c(-c3cccc4cccc(C#N)c34)c(Cl)cc2c2c1ncn2[C@H]1CCN(C(=O)CC#N)[C@H](CC#N)C1)[C@@H]1CCCN1C` [Example 40, 8-(8-chloro-1-((2S,4S)-1-(2-cyanoacetyl)-2-(cyanomethyl)piperidin-4-yl)-6-fluoro-4-((S)-1-((S)-1-methylpyrrolidin-2-yl)ethoxy)-1H-imidazo[4,5-c]quinolin-7-yl)-1-naphthonitrile] are ≤ 100 nM and ≤ 100 nM.
The corresponding values for `CCc1nc2c(-c3ccnc(N4CCN(C)CC4)c3)nc3c(F)c(-c4cc(O)cc5ccccc45)c(CCC#N)cc3c2n1C1C2CNC1C2` (single isomer, unassigned) [Example 22a, 3-(1-((endo)-2-Azabicyclo[2.1.1]hexan-5-yl)-2-ethyl-6-fluoro-7-(3-hydroxynaphthalen-1-yl)-4-(2-(4-methylpiperazin-1-yl)pyridin-4-yl)-1H-imidazo[4,5-c]quinolin-8-yl)propanenitrile] are 100 to 1000 nM and ≤ 100 nM.
For `CN1CCC[C@H]1COc1nc2c(F)c(-c3cc(O)cc4ccccc34)c(CCC#N)cc2c2c1nc(-c1cn(C3CCC3)nn1)n2C1C2CNC1C2` (single isomer, unassigned) [Example 27a], in that order: ≤ 100 nM and ≤ 100 nM.
For the compound `CN(C)C(=O)CCc1nc2c(N3CC(N(C)C)C3)nc3c(OCc4ccccc4)c(-c4cccc5ccc(F)cc45)c(CCC#N)cc3c2n1[C@@H]1[C@@H]2CN[C@H]1C2` (relative stereo) [Example 14, 3-(6-(benzyloxy)-1-((endo)-2-azabicyclo[2.1.1]hexan-5-yl)-8-(2-cyanoethyl)-4-(3-(dimethylamino)azetidin-1-yl)-7-(7-fluoronaphthalen-1-yl)-1H-imidazo[4,5-c]quinolin-2-yl)-N,N-dimethylpropanamide], the figures for the IC50 at KRAS G12V and at KRAS G12D were 5000 to 10000 nM and 100 to 1000 nM, respectively.
For `CCc1nc2c(OCC34CCCN3CC(F)C4)nc3c(F)c(-c4c[nH]c5ccc(F)cc45)c(CCC#N)cc3c2n1C1C2CNC1C2` (mixture of isomers) [Example 30, 3-(1-((endo)-2-azabicyclo[2.1.1]hexan-5-yl)-2-ethyl-6-fluoro-7-(5-fluoro-1H-indol-3-yl)-4-(((2R,7aS)-2-fluorotetrahydro-1H-pyrrolizin-7a(5H)-yl)methoxy)-1H-imidazo[4,5-c]quinolin-8-yl)propanenitrile], the IC50 at KRAS G12V was 100 to 1000 nM; at KRAS G12D it was ≤ 100 nM.
As for `CN(C)C(=O)CCc1nc2c(N3CC(N(C)C)C3)nc3c(F)c(-c4cc(O)cc5ccccc45)c(Cn4cccn4)cc3c2n1[C@@H]1[C@@H]2CN[C@H]1C2` (relative stereo) [Example 9, 3-(8-((1H-pyrazol-1-yl)methyl)-1-((endo)-2-azabicyclo[2.1.1]hexan-5-yl)-4-(3-(dimethylamino)azetidin-1-yl)-6-fluoro-7-(3-hydroxynaphthalen-1-yl)-1H-imidazo[4,5-c]quinolin-2-yl)-N,N-dimethylpropanamide], the IC50 on KRAS G12V and at KRAS G12D was ≤ 100 nM in each case.
Take `CCc1nc2c(-c3ccn4ncnc4c3)nc3c(F)c(-c4cc(O)cc5ccccc45)c(CCC#N)cc3c2n1C1C2CNC1C2` (single isomer, unassigned) [Example 21a, 3-(4-([1,2,4]Triazolo[1,5-a]pyridin-7-yl)-1-((endo)-2-azabicyclo[2.1.1]hexan-5-yl)-2-ethyl-6-fluoro-7-(3-hydroxynaphthalen-1-yl)-1H-imidazo[4,5-c]quinolin-8-yl)propanenitrile]: the IC50 on KRAS G12V and on KRAS G12D was ≤ 100 nM throughout.
As to `CN(C)C1CN(c2nc3c(F)c(-c4cc(O)cc5ccccc45)c(CCC#N)cc3c3c2nc(C2CC2)n3C2C3CNC2C3)C1` (single isomer, unassigned) [Example 25a, 3-(1-((endo)-2-Azabicyclo[2.1.1]hexan-5-yl)-2-cyclopropyl-4-(3-(dimethylamino)azetidin-1-yl)-6-fluoro-7-(3-hydroxynaphthalen-1-yl)-1H-imidazo[4,5-c]quinolin-8-yl)propanenitrile], the IC50 at KRAS G12V was 100 to 1000 nM; on KRAS G12D, ≤ 100 nM.
The corresponding values for `CCc1nc2c(N3CC(N(C)C)C3)nc3c(F)c(-c4cc(O)cc5ccccc45)c(C(CC#N)n4cccn4)cc3c2n1C1C2CNC1C2` (single isomer, unassigned) [Example 7a, 3-(1-((endo)-2-azabicyclo[2.1.1]hexan-5-yl)-4-(3-(dimethylamino)azetidin-1-yl)-2-ethyl-6-fluoro-7-(3-hydroxynaphthalen-1-yl)-1H-imidazo[4,5-c]quinolin-8-yl)-3-(1H-pyrazol-1-yl)propanenitrile] are 100 to 1000 nM and ≤ 100 nM.
On to `CN(C)C(=O)CCc1nc2c(N3CC(N(C)C)C3)nc3c(F)c(-c4nc(N)cc5ccccc45)c(CCC#N)cc3c2n1C1C2CNC1C2` (single isomer, unassigned) [Example 31a, 3-(7-(3-aminoisoquinolin-1-yl)-1-endo-(2-azabicyclo[2.1.1]hexan-5-yl)-8-(2-cyanoethyl)-4-(3-(dimethylamino)azetidin-1-yl)-6-fluoro-1H-imidazo[4,5-c]quinolin-2-yl)-N,N-dimethylpropanamide], for which the figures for the IC50 on KRAS G12V and on KRAS G12D were 5000 to 10000 nM and 100 to 1000 nM, respectively.
For `CN(C)C1CN(c2nc3c(F)c(-c4cc(O)cc5ccccc45)c(CCC#N)cc3c3c2nc(CN2CCCC2=O)n3C2C3CNC2C3)C1` (single isomer, unassigned) [Example 5a, 3-(1-((endo)-2-azabicyclo[2.1.1]hexan-5-yl)-4-(3-(dimethylamino)azetidin-1-yl)-6-fluoro-7-(3-hydroxynaphthalen-1-yl)-2-((2-oxopyrrolidin-1-yl)methyl)-1H-imidazo[4,5-c]quinolin-8-yl)propanenitrile], in that order: ≤ 100 nM and ≤ 100 nM.
For `CN(C)C1CN(c2nc3c(F)c(-c4cc(O)cc5ccccc45)c(CCC#N)cc3c3c2nc(-c2ccn(-c4ccccc4)n2)n3C2C3CNC2C3)C1` (single isomer, unassigned) [Example 34a, 3-(1-((endo)-2-azabicyclo[2.1.1]hexan-5-yl)-4-(3-(dimethylamino)azetidin-1-yl)-6-fluoro-7-(3-hydroxynaphthalen-1-yl)-2-(1-phenyl-1H-pyrazol-3-yl)-1H-imidazo[4,5-c]quinolin-8-yl)propanenitrile], in that order: ≤ 100 nM and ≤ 100 nM.
